Results: paper PMC8241022 (Drug Delivery, 2017)
Where two headings read alike, the source gives them in different places. Marks after values point to notes of the source that are not given here.

Columns and labels:
[1] = for dexamethasone concentration, Choroidal/retinal compound / dexamethasone concentration, Sclera / dexamethasone concentration, Vitreum: CCSDD: first dose 0.3 ml (5 mg/ml) DEXP, then 0.1 ml/h for 10 h, mean ± SD, n=6
Description: (§1) Male and female New Zealand albino rabbits (about four months old and weighing 2.0–2.5 kg) were acquired from the Third Xiangya Hospital of Central South University (Changsha, China). All rabbits were examined thoroughly, and no ocular disease, then were randomly allocated to different groups for subsequent ocular PK studies. Animals were anesthetized by intramuscularly injecting Xylazine Hydrochloride Injection (2 ml:0.2 g, Huamu Animal Health Products Co., Jilin, 0.1–0.2 ml/kg) and dropped Oxybuprocaine Hydrochloride Eye Drops (20 ml:80 mg, Sa) three times, interval 2 min per time.
(§2) Rabbits were randomly divided into three groups and six rabbits for each group per time point. […] After the last instillation in IV group (1 h, 3 h, 6 h, 12 h, 24 h) and SC injection group (1 h, 2 h, 3 h, 4 h, 6 h, 8 h, 12 h, 24 h), respectively, the ocular tissue were collected. […] Animals were euthanized by 3 ml lidocaine (3 ml/rabbit) and 3 ml air intravenously, immediately after death, ocular tissues were collected. Vitreous, choroid/retina and sclera were dissected and weighted as the solid tissues, the samples were stored at −20 °C and then processed for analysis.
(§3) Frozen rabbit samples were thawed at ambient temperature, the solid samples were fixed with 400 ml 0.9% normal saline (NS) and homogenized. A 100 μl aliquot of Triamcinolone diacetate (I.S. 200 ng/ml) standard solution was added to 100 μl of each fluid sample and 400 μl 0.9% NS or homogenized samples. After a thorough vortex mixing for 30 s, the mixture was extracted with 1 ml n-hexane and acetate ester (1:1, v/v) for 60 min, the mixture was centrifuged at 14 000 rpm for 5 min. The organic layer was removed and evaporated under a gentle stream nitrogen gas at 45 °C until it was completely dry. The dried residue was dissolved with 50 μl mobile phase. After centrifugation, 5 μl of the clear supernatant was injected into the LC–MS system: LC-10AD VP low pressure gradient pump, CTO-10A VP column temperature oven, SCL-10AD VP system controller, and LC-MS chemstation. Separation was achieved on a Thermo Hypersil-Hypurity C18 column (150 mm × 2.1 mm, i.d., 5 μm, USA) at 40 °C. […] The operating parameters of ESI–MS (electrospray ionization–mass spectrometry) were as follows: capillary voltage was 4.5 kV; nebulizer nitrogen gas flow-rate was 1.5 l/min; drying N2 flow was 10 l/min; drying gas temperature was 250 °C, the gas used was of high purity, and system control and data evaluation were carried out using LC-MS chemstation (Japan). […] Quantitation was performed by a linear regression analysis of peak areas ratio from a standard curve containing seven standard points.
(§4) The following pharmacokinetic parameters were obtained: peak concentration (Cmax), time to peak concentration (Tmax), elimination half-life (T1/2), area under the concentration–time curve between 0 and 24 h (AUC0–24).
(§5) Tissue concentrations were analyzed using one-way analysis of variance (ANOVA). If there were differences in three groups, we used Dunnett T3 to analyze two groups. All other results were descriptive measures. Statistical significance was accepted at a level of p < 0.05.

[2] = SC: subconjunctival injection of 0.3 ml (5 mg/ml) DEXP, mean ± SD, n=6
Description: as §1, §2, §3, §4, §5

[3] = for dexamethasone concentration, Choroidal/retinal compound / dexamethasone concentration, Sclera / dexamethasone concentration, Vitreum: IV: intravenous injection of 1 mg/kg DEXP, mean ± SD, n=6
Description: as §1, §2, §3, §4, §5

in vivo [4] = conditions: both, New Zealand albino, rabbit; for Tmax: CCSDD group, 0.3 ml (5 mg/ml) DEXP then 0.1 ml/h for 10 h
Description: as §1, §2, §3, §4, §5

in vivo [5] = conditions: both, New Zealand albino, rabbit, iv, 1 mg/kg
Description: as §1, §2, §3, §4, §5

In the case of `C[C@@H]1C[C@H]2[C@@H]3CCC4=CC(=O)C=C[C@]4(C)[C@@]3(F)[C@@H](O)C[C@]2(C)[C@@]1(O)C(=O)CO` [dexamethasone], the “AUC0–24, choroid/retinal compound” value ([1]; CCSDD administration, rabbit) is reported as 41400.70 ng·h/g, the “AUC0–24, sclera” value ([1]; CCSDD administration, rabbit) is reported as 93577.80 ng·h/g and the “dexamethasone concentration, Choroidal/retinal compound” value ([1]; 1 h after first dose) is reported as 2522.46 ± 425.94. For the same compound, the “dexamethasone concentration, Sclera” value ([1]; 1 h after first dose) was 11192.22 ± 5302.51, the “dexamethasone concentration, Vitreum” value ([1]; 1 h after first dose) was 71.05 ± 30.23 and the “dexamethasone concentration, Choroidal/retinal compound” value ([1]; 3 h after first dose) was 3291.35 ± 438.11. For the same compound, the “dexamethasone concentration, Sclera” value ([1]; 3 h after first dose) was 9785.20 ± 1964.12, the “dexamethasone concentration, Vitreum” value ([1]; 3 h after first dose) was 57.23 ± 12.34 and the “dexamethasone concentration, Choroidal/retinal compound” value ([1]; 6 h after first dose) was 2331.09 ± 454.41. For the same compound, the “dexamethasone concentration, Sclera” value ([1]; 6 h after first dose) was 6215.17 ± 1871.83, the “dexamethasone concentration, Vitreum” value ([1]; 6 h after first dose) was 50.23 ± 13.77 and the “dexamethasone concentration, Choroidal/retinal compound” value ([1]; 10 h after first dose) was 1796.19 ± 380.36. For the same compound, the “dexamethasone concentration, Sclera” value ([1]; 10 h after first dose) was 4053.03 ± 1330.47, the “dexamethasone concentration, Vitreum” value ([1]; 10 h after first dose) was 50.51 ± 8.40 and the “dexamethasone concentration, Choroidal/retinal compound” value ([1]; 11 h after first dose) was 1518.52 ± 332.81. For the same compound, the “dexamethasone concentration, Sclera” value ([1]; 11 h after first dose) was 3857.47 ± 1508.05, the “dexamethasone concentration, Vitreum” value ([1]; 11 h after first dose) was 42.84 ± 6.24 and the “dexamethasone concentration, Choroidal/retinal compound” value ([1]; 12 h after first dose) was 1191.62 ± 303.29. The “dexamethasone concentration, Sclera” value ([1]; 12 h after first dose) was 1913.73 ± 389.28, the “dexamethasone concentration, Vitreum” value ([1]; 12 h after first dose) was 33.52 ± 5.31 and the “dexamethasone concentration, Choroidal/retinal compound” value ([1]; 16 h after first dose) was 988.97 ± 336.43. The “dexamethasone concentration, Sclera” value ([1]; 16 h after first dose) was 1215.48 ± 449.07, the “dexamethasone concentration, Choroidal/retinal compound” value ([1]; 20 h after first dose) was 812.90 ± 188.26 and the “dexamethasone concentration, Sclera” value ([1]; 20 h after first dose) was 906.40 ± 312.84. The “dexamethasone concentration, Vitreum” value ([1]; 20 h after first dose) was 27.78 ± 3.26, the “dexamethasone concentration, Choroidal/retinal compound” value ([1]; 24 h after first dose) was 418.20 ± 97.81 and the “dexamethasone concentration, Sclera” value ([1]; 24 h after first dose) was 484.52 ± 155.25. The “dexamethasone concentration, Vitreum” value ([1]; 24 h after first dose) was 22.40 ± 4.38, the “dexamethasone concentration, Choroidal/retinal compound” value ([2]; 1 h) was 1881.83 ± 336.98^a and the “dexamethasone concentration, Sclera” value ([2]; 1 h) was 8604.95 ± 1597.26. The “dexamethasone concentration, Vitreum” value ([2]; 1 h) was 63.19 ± 15.12, the “dexamethasone concentration, Choroidal/retinal compound” value ([2]; 2 h) was 3212.63 ± 796.76 and the “dexamethasone concentration, Sclera” value ([2]; 2 h) was 6071.65 ± 737.76. The “dexamethasone concentration, Vitreum” value ([2]; 2 h) was 80.45 ± 11.10, the “dexamethasone concentration, Choroidal/retinal compound” value ([2]; 3 h) was 3638.80 ± 580.05 and the “dexamethasone concentration, Sclera” value ([2]; 3 h) was 4419.68 ± 1006.87^a. For the same compound, the “dexamethasone concentration, Vitreum” value ([2]; 3 h) was 73.77 ± 14.74, the “dexamethasone concentration, Choroidal/retinal compound” value ([2]; 4 h) was 1701.27 ± 551.90 and the “dexamethasone concentration, Sclera” value ([2]; 4 h) was 2287.56 ± 742.66. For the same compound, the “dexamethasone concentration, Vitreum” value ([2]; 4 h) was 39.65 ± 8.87, the “dexamethasone concentration, Choroidal/retinal compound” value ([2]; 6 h) was 1333.65 ± 469.43^a and the “dexamethasone concentration, Sclera” value ([2]; 6 h) was 1645.75 ± 631.69^a. The “dexamethasone concentration, Vitreum” value ([2]; 6 h) was 34.53 ± 6.89, the “dexamethasone concentration, Choroidal/retinal compound” value ([2]; 8 h) was 760.86 ± 177.74 and the “dexamethasone concentration, Sclera” value ([2]; 8 h) was 1031.78 ± 443.14. For the same compound, the “dexamethasone concentration, Vitreum” value ([2]; 8 h) was 28.29 ± 4.56, the “dexamethasone concentration, Sclera” value ([2]; 12 h) was 463.21 ± 136.14^a and the “dexamethasone concentration, Vitreum” value ([2]; 12 h) was 22.68 ± 5.40^a. The “dexamethasone concentration, Choroidal/retinal compound” value ([2]; 24 h) was 184.59 ± 94.86^a, the “dexamethasone concentration, Sclera” value ([2]; 24 h) was 237.94 ± 139.25^a and the “dexamethasone concentration, Vitreum” value ([2]; 24 h) was 3.71 ± 4.31^a. The “AUC0–24, choroid/retinal compound” value ([3]; IV route, rabbit) was 1571.71 ng·h/g, the “AUC0–24, sclera” value ([3]; IV route, rabbit) was 2858.71 ng·h/g and the “dexamethasone concentration, Choroidal/retinal compound” value ([3]; 1 h) was 140.57 ± 34.56^a. For the same compound, the “dexamethasone concentration, Sclera” value ([3]; 1 h) was 281.42 ± 60.13^a, the “dexamethasone concentration, Vitreum” value ([3]; 1 h) was 43.78 ± 2.62 and the “dexamethasone concentration, Sclera” value ([3]; 3 h) was 402.99 ± 96.49^a. The “dexamethasone concentration, Vitreum” value ([3]; 3 h) was 30.08 ± 2.55^a, the “dexamethasone concentration, Choroidal/retinal compound” value ([3]; 6 h) was 90.75 ± 12.08^a and the “dexamethasone concentration, Sclera” value ([3]; 6 h) was 141.57 ± 31.46^a. The “dexamethasone concentration, Vitreum” value ([3]; 6 h) was 21.53 ± 2.66^a, the “dexamethasone concentration, Choroidal/retinal compound” value ([3]; 12 h) was 38.94 ± 13.00^a and the “dexamethasone concentration, Sclera” value ([3]; 12 h) was 64.38 ± 11.83^a. The “dexamethasone concentration, Vitreum” value ([3]; 12 h) was 5.34 ± 5.11^a, the “dexamethasone concentration, Choroidal/retinal compound” value ([3]; 24 h) was 3.71 ± 4.50^a and the “dexamethasone concentration, Sclera” value ([3]; 24 h) was 22.23 ± 7.44^a. For the same compound, the “dexamethasone concentration, Vitreum” value ([3]; 24 h) was 1.37 ± 2.14^a, the Cmax (in vivo [4]; choroid/retina) was 3220 ng/g and the Cmax (in vivo [4]; in vivo, topical or ocular, 6.5 mg) was 71 ng/mL. For the same compound, the Tmax (in vivo [4]; in vivo, topical or ocular, 6.5 mg, Choroidal/retinal compound) was 3 h, the Tmax (in vivo [4]; in vivo, topical or ocular, 6.5 mg, Sclera) was 1 h and the Tmax (in vivo [4]; in vivo, topical or ocular, 6.5 mg, Vitreum) was 1 h. The Cmax (in vivo [4]; sclera) was 11200 ng/g, the AUC(0-t) (in vivo [4]; vitreous, topical or ocular, 6.5 mg) was 1410 ng·h/mL and the Cmax (in vivo [5]; choroid/retina) was 285 ng/g. The Tmax (in vivo [5]; choroid/retina) was 3 h, the Cmax (in vivo [5]; sclera) was 403 ng/g and the Tmax (in vivo [5]; sclera) was 3 h. It also gave an AUC(0-t) (in vivo [5]; vitreous) of 285 ng·h/mL, a Cmax (in vivo [5]; vitreous) of 43.8 ng/mL and a Tmax (in vivo [5]; vitreous) of 1 h.
